# According to article PMC6913697 (Journal of Experimental Botany, 2019):
# Experiments:
# Format in all cases: biochemical
# PvCHI1 = target: T1, PvCHI1 (Pteris vittata, UniProt A0A4Y6I0P5); test: HPLC product analysis
# T1 sequence (A0A4Y6I0P5 1-214): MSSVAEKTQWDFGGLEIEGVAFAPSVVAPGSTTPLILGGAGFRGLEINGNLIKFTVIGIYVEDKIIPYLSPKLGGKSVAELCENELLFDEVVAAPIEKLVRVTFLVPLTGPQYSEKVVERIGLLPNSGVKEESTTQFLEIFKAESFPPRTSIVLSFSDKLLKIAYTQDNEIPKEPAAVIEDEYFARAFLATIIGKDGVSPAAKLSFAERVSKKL
# AdcCHI1 = target: T2, AdcCHI1 (Adiantum caudatum, UniProt A0A4Y6I1H0); test: HPLC product analysis
# T2 sequence (A0A4Y6I1H0 1-214): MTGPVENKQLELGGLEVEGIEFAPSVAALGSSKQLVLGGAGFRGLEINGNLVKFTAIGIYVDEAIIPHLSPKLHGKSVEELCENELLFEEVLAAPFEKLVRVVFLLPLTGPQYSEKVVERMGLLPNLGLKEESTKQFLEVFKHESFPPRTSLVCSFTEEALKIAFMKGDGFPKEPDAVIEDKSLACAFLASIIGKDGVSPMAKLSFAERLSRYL
# HaCHI1 = target: T3, HaCHI1 (Haplopteris amboinensis, UniProt A0A4Y6I1E6); test: HPLC product analysis
# T3 sequence (A0A4Y6I1E6 1-214): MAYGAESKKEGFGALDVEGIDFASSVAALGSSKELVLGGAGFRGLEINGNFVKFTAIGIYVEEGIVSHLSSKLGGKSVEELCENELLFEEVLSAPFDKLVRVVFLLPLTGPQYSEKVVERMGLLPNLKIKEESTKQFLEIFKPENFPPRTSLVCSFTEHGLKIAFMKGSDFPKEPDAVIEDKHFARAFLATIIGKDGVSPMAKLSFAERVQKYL
# LoCHS1 = target: T4, LoCHS1 (Lindsaea orbiculata, UniProt A0A4Y6I0N8); test: LC-MS product analysis; conditions: 100 μM malonyl-CoA, 50 mM potassium phosphate pH 6.5, 35 °C, no CHIL
# T4 sequence (A0A4Y6I0N8 1-405): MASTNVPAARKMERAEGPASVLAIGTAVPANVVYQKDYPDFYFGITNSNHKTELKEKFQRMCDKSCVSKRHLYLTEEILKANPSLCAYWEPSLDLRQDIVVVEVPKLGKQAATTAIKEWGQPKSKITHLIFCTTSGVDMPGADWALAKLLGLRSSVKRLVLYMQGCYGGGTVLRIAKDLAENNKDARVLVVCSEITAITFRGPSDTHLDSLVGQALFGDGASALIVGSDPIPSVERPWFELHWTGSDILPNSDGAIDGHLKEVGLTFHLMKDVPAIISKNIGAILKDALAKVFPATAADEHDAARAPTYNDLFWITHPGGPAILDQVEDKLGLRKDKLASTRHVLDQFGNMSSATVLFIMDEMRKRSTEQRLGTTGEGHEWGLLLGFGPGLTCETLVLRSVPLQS
# LoCHS2 = target: T5, LoCHS2 (Lindsaea orbiculata, UniProt A0A4Y6I0P0); test: LC-MS product analysis; conditions: 100 μM malonyl-CoA, 50 mM potassium phosphate pH 6.5, 35 °C, no CHIL
# T5 sequence (A0A4Y6I0P0 1-439): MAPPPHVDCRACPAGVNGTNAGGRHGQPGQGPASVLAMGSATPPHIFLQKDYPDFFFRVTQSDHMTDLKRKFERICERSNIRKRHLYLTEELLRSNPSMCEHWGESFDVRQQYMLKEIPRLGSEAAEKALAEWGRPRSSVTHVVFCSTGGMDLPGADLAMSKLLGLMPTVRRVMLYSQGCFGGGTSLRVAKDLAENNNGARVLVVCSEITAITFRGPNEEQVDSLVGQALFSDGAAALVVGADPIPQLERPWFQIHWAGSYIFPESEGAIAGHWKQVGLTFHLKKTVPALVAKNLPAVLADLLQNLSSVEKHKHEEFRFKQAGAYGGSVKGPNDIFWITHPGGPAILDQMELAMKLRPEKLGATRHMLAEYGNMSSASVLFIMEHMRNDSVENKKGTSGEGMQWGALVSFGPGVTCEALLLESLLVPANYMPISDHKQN
# [1] = 50 μM substrate, 50 mM Tris-HCl pH 7.5, 25 °C
compound,measurement,setting,value
O=C(/C=C/c1ccc(O)cc1)c1ccc(O)cc1O [isoliquiritigenin],HPLC product analysis,PvCHI1; [1],"AcCHI1, AdcCHI1, AcaCHI1, HaCHI1, and PvCHI1 were all able to catalyze type II-specific substrates"
same,HPLC product analysis,AdcCHI1; [1],"AcCHI1, AdcCHI1, AcaCHI1, HaCHI1, and PvCHI1 were all able to catalyze type II-specific substrates"
same,HPLC product analysis,HaCHI1; [1],"AcCHI1, AdcCHI1, AcaCHI1, HaCHI1, and PvCHI1 were all able to catalyze type II-specific substrates"
O=C(/C=C/c1ccc(O)cc1)c1c(O)cc(O)cc1O [naringenin chalcone],HPLC product analysis,"PvCHI1; room temperature, 1 min","the other five (AcCHI1, AcaCHI1, AdcCHI1, HaCHI1, and PvCHI1) exhibited slight type II CHI activity"
same,HPLC product analysis,"AdcCHI1; room temperature, 1 min","the other five (AcCHI1, AcaCHI1, AdcCHI1, HaCHI1, and PvCHI1) exhibited slight type II CHI activity"
same,HPLC product analysis,"HaCHI1; room temperature, 1 min","the other five (AcCHI1, AcaCHI1, AdcCHI1, HaCHI1, and PvCHI1) exhibited slight type II CHI activity"
CC(C)(COP(=O)(O)OP(=O)(O)OC[C@H]1O[C@@H](n2cnc3c(N)ncnc32)[C@H](O)[C@@H]1OP(=O)(O)O)[C@@H](O)C(=O)NCCC(=O)NCCSC(=O)/C=C/c1ccc(O)cc1 [p-coumaroyl-CoA],LC-MS product analysis,LoCHS1,reactions were provided with p-coumaroyl-CoA and malonyl-CoA
same,LC-MS product analysis,LoCHS2,reactions were provided with p-coumaroyl-CoA and malonyl-CoA
